Tests used:
Mus musculus [1] = test: In vivo anti-thrombotic activity was evaluated by the inhibition of pulmonary thromboembolism model in mice at a dose of 30 mg/kg (p.o.); assay type: functional; conditions: route oral
[2] = (§1) In vitro inhibitory activity against Adenosine diphosphate (ADP) induced rabbit platelet aggregation; assay type: functional, Oryctolagus cuniculus
Oryctolagus cuniculus [3] = organism: Oryctolagus cuniculus; test: In vitro inhibitory activity against collagen induced rabbit platelet aggregation; assay type: functional
Rattus norvegicus [4] = test: In vivo anti-hyperplastic activity was evaluated by the inhibition of balloon injury model in rats at a dose of 30 mg/kg (p.o.); assay type: functional; conditions: for inhibition in vivo at 30 mg/kg: Rattus norvegicus, po
Rattus norvegicus [5] = test: In vivo anti-hyperplastic activity was evaluated by the inhibition of balloon injury model in rats at a dose of 10 mg/kg (p.o.); assay type: functional; conditions: route oral
Mus musculus [6] = test: In vivo anti-thrombotic activity was evaluated by the inhibition of pulmonary thromboembolism model in mice at a dose of 10 mg/kg (p.o.); assay type: functional; conditions: route oral
Oryctolagus cuniculus [7] = organism: Oryctolagus cuniculus; test: as §1; assay type: functional

| IC50 ([2]; Oryctolagus cuniculus) | IC50 (Oryctolagus cuniculus [3]; Oryctolagus cuniculus) | IC50 [2] | IC50 (Oryctolagus cuniculus [3]) | IC50 (Oryctolagus cuniculus [7]) | Compound | inhibition in vivo at 30 mg/kg (Mus musculus [1]) | inhibition in vivo at 30 mg/kg (Rattus norvegicus [4]) | inhibition in vivo at 10 mg/kg (Rattus norvegicus [5]) | inhibition in vivo at 10 mg/kg (Mus musculus [6]) | Inhibition (Rattus norvegicus [4]; route oral, 30 mg/kg) |
| --- | --- | --- | --- | --- | --- | --- | --- | --- | --- | --- |
| 0.71 µM | 3.5 µM | – | – | – | CCCCO[C@H]1CCCC[C@@H]1N(C(=O)NCCCOc1ccc2nc(O)ccc2c1)C1CC1 | 33% | 19% | – | – | – |
| 3.8 µM | 3.1 µM | – | – | – | O=C(NCCCOc1ccc2nc(O)ccc2c1)N(C1CC1)[C@H]1CC[C@H](O)CC1 | 0% | 7% | – | – | – |
| 2.4 µM | 2.2 µM | – | – | – | O=C(NCCCOc1ccc2nc(O)ccc2c1)N(C1CC1)[C@H]1CCCC[C@@H]1O | 100% | 13% | 1% | 29% | – |
| 3.9 µM | 15 µM | – | – | – | CN(C(=O)NCCCOc1ccc2nc(O)ccc2c1)[C@@H]1CCCC[C@H]1O | 18% | 10% | – | – | – |
| 29 µM | 31 µM | – | – | – | O=C1CCc2cc(OCCCCc3nnnn3C3CCCCC3)ccc2N1 [CILOSTAZOL] | 82% | 12% | – | – | – |
| 2.3 µM | 3.3 µM | – | – | – | O=C(NCCCOc1ccc2nc(O)ccc2c1)N(C1CC1)[C@H]1CCCC[C@H]1O | 100% | 19% | – | – | – |
| – | – | 2.5 µM | 3.1 µM | – | O=C(NCCCOc1ccc2[nH]c(=O)ccc2c1)N(C1CC1)[C@@H]1CCCC[C@H]1O (stereo in doubt; 1d) [K-134] | – | – | – | – | 29% |
| 0.08 µM | 0.03 µM | – | – | – | O=C(NCCCOc1ccc2nc(O)ccc2c1)N(C1CCCCCCC1)[C@H]1CCCC[C@@H]1O | 100% | 27% | – | – | – |
| 0.19 µM | 0.15 µM | – | – | – | O=C(NCCCOc1ccc2nc(O)ccc2c1)N(C1CCCCC1)[C@H]1CCCC[C@@H]1O | 57% | 18% | – | – | – |
| 2.4 µM | 2.2 µM | – | – | – | CN(C(=O)CCCOc1ccc2[nH]c(=O)ccc2c1)C1CCCCC1 [CILOSTAMIDE] | 84% | 42% | – | – | – |
| 0.27 µM | 1.8 µM | – | – | – | O=C(NCCCOc1ccc2nc(O)ccc2c1)N(C1CCCC1)[C@H]1CCCC[C@@H]1O | 78% | 20% | – | – | – |
| > 1000 µM | > 1000 µM | – | – | – | CC(=O)Oc1ccccc1C(=O)O [ASPIRIN] | 33% | 16% | – | – | – |
| – | 2.7 µM | – | – | 2.6 µM | CN(C(=O)NCCCOc1ccc2nc(O)ccc2c1)C1CCCCC1 | 21% | 15% | – | – | – |
| 2.2 µM | 2.4 µM | – | – | – | O=C(NCCCOc1ccc2nc(O)ccc2c1)N(C1CCCCC1)C1CC1 | 100% | 15% | – | – | – |
| 2.5 µM | 3.5 µM | – | – | – | O=C(NCCCOc1ccc2nc(O)ccc2c1)N(C1CC1)[C@@H]1CCC[C@H]1O | 67% | 23% | – | – | – |
| 2.3 µM | 2.2 µM | – | – | – | O=C(NCCCOc1ccc2[nH]c(=O)ccc2c1)N(C1CC1)[C@@H]1CCCC[C@H]1O (stereo in doubt; 1p) [K-134] | 100% | 24% | 26% | 88% | – |
| 15 µM | 16 µM | – | – | – | CCN(CCCOc1ccc2nc(O)ccc2c1)C(=O)N(C)C1CCCCC1 | 58% | 12% | – | – | – |
| 3 µM | 2.8 µM | – | – | – | O=C(NCCCOc1ccc2nc(O)ccc2c1)N(C1CC1)[C@@H]1CCC[C@@H](O)C1 | 20% | 0% | – | – | – |
| 0.12 µM | 0.03 µM | – | – | – | O=C(NCCCOc1ccc2nc(O)ccc2c1)N(C1CCCCCC1)[C@H]1CCCC[C@@H]1O | 69% | 11% | – | – | – |
| 2.6 µM | 2.8 µM | – | – | – | O=C(NCCCOc1ccc2nc(O)ccc2c1)N(C1CC1)[C@@H]1CCCCC[C@H]1O | 44% | 0% | – | – | – |

Reference: ChEMBL document CHEMBL1130834, “2(1H)-quinolinone derivatives as novel anti-arteriostenotic agents showing anti-thrombotic and anti-hyperplastic activities” (Bioorg Med Chem Lett, 1998)
